# ± gives the expanded uncertainty stated by the source.
# Settings: Liquid, Vibrating tube method
structure (smiles),measurement,setting,value
c1ccsc1 [thiophene],mass density,"313.15 K, 100 kPa",1040.68 ± 0.5 kg/m3
same,mass density,"313.15 K, 2000 kPa",1042.52 ± 0.5 kg/m3
same,mass density,"313.15 K, 5000 kPa",1045.35 ± 0.5 kg/m3
same,mass density,"313.15 K, 7000 kPa",1047.19 ± 0.5 kg/m3
same,mass density,"313.15 K, 10000 kPa",1049.91 ± 0.5 kg/m3
same,mass density,"313.15 K, 15000 kPa",1054.25 ± 0.51 kg/m3
same,mass density,"313.15 K, 20000 kPa",1058.47 ± 0.51 kg/m3
same,mass density,"313.15 K, 25000 kPa",1062.52 ± 0.51 kg/m3
same,mass density,"313.15 K, 30000 kPa",1066.43 ± 0.52 kg/m3
same,mass density,"313.15 K, 35000 kPa",1070.21 ± 0.52 kg/m3
same,mass density,"313.15 K, 40000 kPa",1073.88 ± 0.53 kg/m3
same,mass density,"313.15 K, 45000 kPa",1077.41 ± 0.53 kg/m3
same,mass density,"313.15 K, 50000 kPa",1080.86 ± 0.54 kg/m3
same,mass density,"313.15 K, 55000 kPa",1084.2 ± 0.55 kg/m3
same,mass density,"313.15 K, 60000 kPa",1087.42 ± 0.56 kg/m3
same,mass density,"313.15 K, 65000 kPa",1090.59 ± 0.57 kg/m3
same,mass density,"318.15 K, 100 kPa",1034.64 ± 0.5 kg/m3
same,mass density,"318.15 K, 2000 kPa",1036.54 ± 0.5 kg/m3
same,mass density,"318.15 K, 5000 kPa",1039.44 ± 0.5 kg/m3
same,mass density,"318.15 K, 7000 kPa",1041.36 ± 0.5 kg/m3
same,mass density,"318.15 K, 10000 kPa",1044.15 ± 0.5 kg/m3
same,mass density,"318.15 K, 15000 kPa",1048.65 ± 0.51 kg/m3
same,mass density,"318.15 K, 20000 kPa",1052.97 ± 0.51 kg/m3
same,mass density,"318.15 K, 25000 kPa",1057.12 ± 0.51 kg/m3
same,mass density,"318.15 K, 30000 kPa",1061.15 ± 0.51 kg/m3
same,mass density,"318.15 K, 35000 kPa",1065.02 ± 0.52 kg/m3
same,mass density,"318.15 K, 40000 kPa",1068.77 ± 0.52 kg/m3
same,mass density,"318.15 K, 45000 kPa",1072.41 ± 0.53 kg/m3
same,mass density,"318.15 K, 50000 kPa",1075.92 ± 0.54 kg/m3
same,mass density,"318.15 K, 55000 kPa",1079.33 ± 0.54 kg/m3
same,mass density,"318.15 K, 60000 kPa",1082.65 ± 0.55 kg/m3
same,mass density,"318.15 K, 65000 kPa",1085.87 ± 0.56 kg/m3
same,mass density,"323.15 K, 100 kPa",1028.59 ± 0.5 kg/m3
same,mass density,"323.15 K, 2000 kPa",1030.52 ± 0.5 kg/m3
same,mass density,"323.15 K, 5000 kPa",1033.54 ± 0.5 kg/m3
same,mass density,"323.15 K, 7000 kPa",1035.52 ± 0.5 kg/m3
same,mass density,"323.15 K, 10000 kPa",1038.37 ± 0.5 kg/m3
same,mass density,"323.15 K, 15000 kPa",1042.99 ± 0.51 kg/m3
same,mass density,"323.15 K, 20000 kPa",1047.45 ± 0.51 kg/m3
same,mass density,"323.15 K, 25000 kPa",1051.73 ± 0.51 kg/m3
same,mass density,"323.15 K, 30000 kPa",1055.85 ± 0.51 kg/m3
same,mass density,"323.15 K, 35000 kPa",1059.82 ± 0.52 kg/m3
same,mass density,"323.15 K, 40000 kPa",1063.67 ± 0.52 kg/m3
same,mass density,"323.15 K, 45000 kPa",1067.38 ± 0.53 kg/m3
same,mass density,"323.15 K, 50000 kPa",1070.98 ± 0.53 kg/m3
same,mass density,"323.15 K, 55000 kPa",1074.48 ± 0.54 kg/m3
same,mass density,"323.15 K, 60000 kPa",1077.86 ± 0.55 kg/m3
same,mass density,"323.15 K, 65000 kPa",1081.13 ± 0.56 kg/m3
same,mass density,"328.15 K, 100 kPa",1022.43 ± 0.5 kg/m3
same,mass density,"328.15 K, 2000 kPa",1024.49 ± 0.5 kg/m3
same,mass density,"328.15 K, 5000 kPa",1027.57 ± 0.5 kg/m3
same,mass density,"328.15 K, 7000 kPa",1029.6 ± 0.5 kg/m3
same,mass density,"328.15 K, 10000 kPa",1032.58 ± 0.5 kg/m3
same,mass density,"328.15 K, 15000 kPa",1037.33 ± 0.5 kg/m3
same,mass density,"328.15 K, 20000 kPa",1041.91 ± 0.51 kg/m3
same,mass density,"328.15 K, 25000 kPa",1046.31 ± 0.51 kg/m3
same,mass density,"328.15 K, 30000 kPa",1050.54 ± 0.51 kg/m3
same,mass density,"328.15 K, 35000 kPa",1054.61 ± 0.51 kg/m3
same,mass density,"328.15 K, 40000 kPa",1058.55 ± 0.52 kg/m3
same,mass density,"328.15 K, 45000 kPa",1062.36 ± 0.52 kg/m3
same,mass density,"328.15 K, 50000 kPa",1066.05 ± 0.53 kg/m3
same,mass density,"328.15 K, 55000 kPa",1069.6 ± 0.54 kg/m3
same,mass density,"328.15 K, 60000 kPa",1073.07 ± 0.54 kg/m3
same,mass density,"328.15 K, 65000 kPa",1076.42 ± 0.55 kg/m3
same,mass density,"333.15 K, 100 kPa",1016.27 ± 0.5 kg/m3
same,mass density,"333.15 K, 2000 kPa",1018.35 ± 0.5 kg/m3
same,mass density,"333.15 K, 5000 kPa",1021.56 ± 0.5 kg/m3
same,mass density,"333.15 K, 7000 kPa",1023.65 ± 0.5 kg/m3
same,mass density,"333.15 K, 10000 kPa",1026.72 ± 0.5 kg/m3
same,mass density,"333.15 K, 15000 kPa",1031.63 ± 0.5 kg/m3
same,mass density,"333.15 K, 20000 kPa",1036.34 ± 0.51 kg/m3
same,mass density,"333.15 K, 25000 kPa",1040.87 ± 0.51 kg/m3
same,mass density,"333.15 K, 30000 kPa",1045.21 ± 0.51 kg/m3
same,mass density,"333.15 K, 35000 kPa",1049.39 ± 0.51 kg/m3
same,mass density,"333.15 K, 40000 kPa",1053.43 ± 0.52 kg/m3
same,mass density,"333.15 K, 45000 kPa",1057.32 ± 0.52 kg/m3
same,mass density,"333.15 K, 50000 kPa",1061.09 ± 0.53 kg/m3
same,mass density,"333.15 K, 55000 kPa",1064.72 ± 0.53 kg/m3
same,mass density,"333.15 K, 60000 kPa",1068.26 ± 0.54 kg/m3
same,mass density,"333.15 K, 65000 kPa",1071.7 ± 0.55 kg/m3
same,mass density,"338.15 K, 100 kPa",1010.08 ± 0.5 kg/m3
same,mass density,"338.15 K, 2000 kPa",1012.22 ± 0.5 kg/m3
same,mass density,"338.15 K, 5000 kPa",1015.53 ± 0.5 kg/m3
same,mass density,"338.15 K, 7000 kPa",1017.69 ± 0.5 kg/m3
same,mass density,"338.15 K, 10000 kPa",1020.86 ± 0.5 kg/m3
same,mass density,"338.15 K, 15000 kPa",1025.92 ± 0.5 kg/m3
same,mass density,"338.15 K, 20000 kPa",1030.78 ± 0.5 kg/m3
same,mass density,"338.15 K, 25000 kPa",1035.41 ± 0.51 kg/m3
same,mass density,"338.15 K, 30000 kPa",1039.88 ± 0.51 kg/m3
same,mass density,"338.15 K, 35000 kPa",1044.17 ± 0.51 kg/m3
same,mass density,"338.15 K, 40000 kPa",1048.31 ± 0.51 kg/m3
same,mass density,"338.15 K, 45000 kPa",1052.28 ± 0.52 kg/m3
same,mass density,"338.15 K, 50000 kPa",1056.13 ± 0.52 kg/m3
same,mass density,"338.15 K, 55000 kPa",1059.87 ± 0.53 kg/m3
same,mass density,"338.15 K, 60000 kPa",1063.48 ± 0.53 kg/m3
same,mass density,"338.15 K, 65000 kPa",1066.99 ± 0.54 kg/m3
